The values that follow come from EP4603546A1, “SOLID DISPERSION CONTAINING SUBSTANCE TO BE DISPERSED, PHARMACEUTICAL COMPOSITION CONTAINING SAME, AND PRODUCTION METHODS THEREFOR” (CHUGAI SEIYAKU KABUSHIKI KAISHA, priority 2022, dated 2024).

Molecules are shown by their SMILES. ≈ marks a conversion by molar mass, not a printed value. Numbered stars: 1 amine (or outer) side, 2 acyl side, 3 side chain; on linkers, the order of the positions; unused ones are H or OH. Bridge positions count the residues as written; N and C are the ends. Square brackets hold non-standard residues; d marks the D form. Peptide text beside a SMILES is read from it. * marks the point of attachment. hPhe(3,5-F2-4-CF3) = N[C@@H](CCc1cc(F)c(C(F)(F)F)c(F)c1)C(=O)O; hPhe(3-Cl-4-CF3) = N[C@@H](CCc1ccc(C(F)(F)F)c(Cl)c1)C(=O)O; NMePhe(4-CF3) = CN[C@@H](Cc1ccc(C(F)(F)F)cc1)C(=O)O; NEtPhe(4-Me) = CCN[C@@H](Cc1ccc(C)cc1)C(=O)O; NMePhe(4-Me) = CN[C@@H](Cc1ccc(C)cc1)C(=O)O; NMedβ3hAla = C[C@H](CC(=O)[*:2])N(C)[*:1]; NMeGly(cPent) = CN[C@H](C(=O)O)C1CCCC1; Pro(4,4-F2) = O=C(O)[C@@H]1CC(F)(F)CN1; NMeGly(cBu) = CN[C@H](C(=O)O)C1CCC1; NMeCha = CN[C@@H](CC1CCCCC1)C(=O)O; Hyp = O=C(O)[C@@H]1C[C@@H](O)CN1; NMeChg = CN[C@H](C(=O)O)C1CCCCC1; NMeI = CC[C@H](C)[C@H](NC)C(=O)O; NMeD = CN[C@@H](CC(=O)O)C(=O)O; NMeL = CN[C@@H](CC(C)C)C(=O)O; NMeA = CN[C@@H](C)C(=O)O; Pyrrolidide = C1CCN(*)C1; Ac5c = NC1(C(=O)O)CCCC1; Aze = O=C(O)[C@@H]1CCN1; Sar = CNCC(=O)O Some results are limits rather than exact numbers.

A short description of this data set: physchem. Particulars: pH 6.5, aqueous buffer. As for the experimental part:
Solubility (unit: mg/mL) was calculated from the measured compound concentration. The HPLC conditions are as follows. Detector: ultraviolet absorption photometer (measurement wavelength: 230 nm) Column: stainless steel tube of 2.1 mm inner diameter, 5 cm long filled with 1.7 µm ethylene cross-linked hybrid particles for liquid chromatography Column temperature: constant temperature near 70°C Mobile phase A: water/trifluoroacetic acid mixed solution (2000/1) Mobile phase B: acetonitrile/trifluoroacetic acid mixed solution (2000/1) Liquid delivery of mobile phase: concentration gradient control by changing the mixing ratio of mobile phase A and mobile phase B as shown in Table 8 below [Table 8]
Take `CC[C@H](C)[C@@H]1NC(=O)[C@H](C2CCC2)N(C)C(=O)C[C@@H](C(=O)N2CCCC2)N(C)C(=O)[C@H](C2CCCCC2)N(C)C(=O)C2(CCCC2)NC(=O)[C@@H]2CC(F)(F)CN2C(=O)[C@H](CCc2cc(F)c(C(F)(F)F)c(F)c2)NC(=O)CN(C)C(=O)[C@H](CC2CCCCC2)N(C)C(=O)CN(C)C(=O)CN(C)C1=O` [Compound V] ([NMeGly(cBu)]I[Sar][Sar][NMeCha][Sar][hPhe(3,5-F2-4-CF3)][Pro(4,4-F2)][Ac5c][NMeChg][NMeD]-Pyrrolidide; lactam N-11): the thermodynamic solubility (as a rule, solubility found after equilibrating the solid with the medium) was less than 1 µg/mL.

Turning to `CC[C@H](C)[C@@H]1NC(=O)[C@H](CC(C)C)N(C)C(=O)C[C@@H](C(=O)N2CCCC2)N(C)C(=O)[C@H]([C@@H](C)CC)N(C)C(=O)C2(CCCC2)NC(=O)[C@@H]2CCCN2C(=O)[C@H](CCc2ccc(C(F)(F)F)c(Cl)c2)NC(=O)CN(C)C(=O)[C@H](Cc2ccc(C)cc2)N(C)C(=O)[C@@H]2CCN2C(=O)[C@H](C)N(C)C1=O` [Compound III] ([NMeL]I[NMeA][Aze][NMePhe(4-Me)][Sar][hPhe(3-Cl-4-CF3)]P[Ac5c][NMeI][NMeD]-Pyrrolidide; lactam N-11), the thermodynamic solubility was determined as 10 µg/mL (≈ 6.96 µM).

With `CCO[C@@H]1C[C@H]2C(=O)NC3(CCCC3)C(=O)N(C)[C@@H]([C@@H](C)CC)C(=O)N(C)[C@H](C)CC(=O)N(C)[C@@H](CC(C)C)C(=O)N[C@@H]([C@@H](C)CC)C(=O)N(C)[C@@H](C)C(=O)N3CC[C@H]3C(=O)N(C)[C@@H](Cc3ccc(C(F)(F)F)cc3)C(=O)N(C)CC(=O)N[C@@H](CCc3ccc(C(F)(F)F)c(Cl)c3)C(=O)N2C1` [Compound II] (cyclo([Ac5c][NMeI][NMedβ3hAla][NMeL]I[NMeA][Aze][NMePhe(4-CF3)][Sar][hPhe(3-Cl-4-CF3)][Hyp](Et))), the thermodynamic solubility worked out at 1 µg/mL (≈ 0.689 µM).

The compound `CC[C@H](C)[C@@H]1NC(=O)[C@H](CC(C)C)N(C)C(=O)C[C@@H](C(=O)N(C)C)N(C)C(=O)[C@H](C2CCCC2)N(C)C(=O)C2(CCCC2)NC(=O)[C@@H]2CCCN2C(=O)[C@H](CCc2cc(F)c(C(F)(F)F)c(F)c2)NC(=O)CN(C)C(=O)[C@H](Cc2ccc(C)cc2)N(CC)C(=O)[C@@H]2CCN2C(=O)[C@H](C)N(C)C1=O` [Compound I] ([NMeL]I[NMeA][Aze][NEtPhe(4-Me)][Sar][hPhe(3,5-F2-4-CF3)]P[Ac5c][NMeGly(cPent)][NMeD]-NMe2; lactam N-11) returned a thermodynamic solubility of less than 1 µg/mL.

Turning to `CC[C@H](C)[C@@H]1NC(=O)[C@H](CC(C)C)N(C)C(=O)C[C@@H](C(=O)N(C)C)N(C)C(=O)[C@H]([C@@H](C)CC)N(C)C(=O)C2(CCCC2)NC(=O)[C@@H]2CCCN2C(=O)[C@H](CCc2ccc(C(F)(F)F)c(Cl)c2)NC(=O)CN(C)C(=O)[C@H](Cc2ccc(C)cc2)N(C)C(=O)[C@@H]2CCN2C(=O)[C@H](C)N(C)C1=O` [Compound IV] ([NMeL]I[NMeA][Aze][NMePhe(4-Me)][Sar][hPhe(3-Cl-4-CF3)]P[Ac5c][NMeI][NMeD]-NMe2; lactam N-11), the thermodynamic solubility was determined as 20 µg/mL (≈ 14.2 µM).
